Results as given in ChEMBL document CHEMBL1135800, “Carbonic anhydrase inhibitors: anticonvulsant sulfonamides incorporating valproyl and other lipophilic moieties” (J Med Chem, 2002).

Experiments:
Mus musculus [1] = test: Anticonvulsant activity in mice by MES test at 0.5 hr following intraperitoneal injection of 10 mg/kg dose.; format: functional
Mus musculus [2] = test: Anticonvulsant activity in mice by MES test at 0.5 h following intraperitoneal injection of 30 mg/kg dose.; format: functional
Mus musculus [3] = test: Anticonvulsant activity in mice by MES test at 3.0 hr following intraperitoneal injection of 10 mg/kg dose.; format: functional
Mus musculus [4] = test: Anticonvulsant activity in mice by MES test at 3.0 hr following intraperitoneal injection of 30 mg/kg dose.; format: functional
Carbonic anhydrase 4 = target: T1, Carbonic anhydrase 4 (Bos taurus, UniProt Q95323)
T1 sequence (Q95323 whole entry): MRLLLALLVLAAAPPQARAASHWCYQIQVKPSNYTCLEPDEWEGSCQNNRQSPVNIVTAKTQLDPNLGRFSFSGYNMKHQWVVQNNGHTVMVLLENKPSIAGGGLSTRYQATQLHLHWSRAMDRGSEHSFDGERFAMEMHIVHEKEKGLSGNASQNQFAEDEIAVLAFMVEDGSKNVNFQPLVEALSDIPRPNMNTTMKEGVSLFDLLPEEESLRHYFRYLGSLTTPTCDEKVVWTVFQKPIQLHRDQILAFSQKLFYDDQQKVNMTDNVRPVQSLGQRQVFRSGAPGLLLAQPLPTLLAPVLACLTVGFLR
Description: Inhibitory effect on bovine Carbonic anhydrase IV

Carbonic anhydrase 1 = Carbonic anhydrase 1 (Homo sapiens, UniProt P00915)
Sequence of Carbonic anhydrase 1 (P00915 whole entry): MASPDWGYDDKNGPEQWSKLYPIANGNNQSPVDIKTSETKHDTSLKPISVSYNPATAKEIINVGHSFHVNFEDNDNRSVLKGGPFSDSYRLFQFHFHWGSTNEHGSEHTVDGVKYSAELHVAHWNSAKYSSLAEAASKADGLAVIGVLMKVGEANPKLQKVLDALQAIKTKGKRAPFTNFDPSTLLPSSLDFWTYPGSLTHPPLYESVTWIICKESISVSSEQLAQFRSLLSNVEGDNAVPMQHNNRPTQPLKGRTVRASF
Description: Inhibitory effect on human carbonic anhydrase I

Carbonic anhydrase 2 = Carbonic anhydrase 2 (Homo sapiens, UniProt P00918)
Description: Inhibitory effect on human Carbonic anhydrase II

Mus musculus [5] = test: Anticonvulsant activity in mice by MES test at 0.5 hr following intraperitoneal injection of 30 mg/kg dose; format: functional
Mus musculus [6] = test: Anticonvulsant activity in mice by MES test at 3.0 hr following intraperitoneal injection of 30 mg/kg dose; format: functional
Mus musculus [7] = organism: Mus musculus; test: MES test: number of mice treated / total number of mice 4.0 h; format: functional
Mus musculus [8] = organism: Mus musculus; test: MES test: number of mice treated / total number of mice 6.0 h; format: functional
Mus musculus [9] = organism: Mus musculus; test: MES test: number of mice treated / total number of mice at 0.5 h; format: functional
Mus musculus [10] = organism: Mus musculus; test: MES test: number of mice treated / total number of mice at 1.0 h; format: functional
Mus musculus [11] = organism: Mus musculus; test: MES test: number of mice treated / total number of mice at 2.0 h; format: functional
[12] = Activity in MES test with six to eight OFI male mice for each time at 30 mg/kg dose at 0.5 h; format: functional, Mus musculus
[13] = Activity in MES test with six to eight OFI male mice for each time at 30 mg/kg dose at 1.0 h; format: functional, Mus musculus
[14] = Activity in MES test with six to eight OFI male mice for each time at 30 mg/kg dose at 2.0 h; format: functional, Mus musculus
[15] = Activity in MES test with six to eight OFI male mice for each time at 30 mg/kg dose at 3.0 h; format: functional, Mus musculus
[16] = Activity in MES test with six to eight OFI male mice for each time at 30 mg/kg dose at 4.0 h; format: functional, Mus musculus
[17] = Activity in MES test with six to eight OFI male mice for each time at 30 mg/kg dose at 6.0 h; format: functional, Mus musculus
Mus musculus [18] = test: Anticonvulsant activity in mice by MES test at 0.5 hr following intraperitoneal injection of 10 mg/kg dose; format: functional
Mus musculus [19] = test: Anticonvulsant activity in mice by MES test at 3.0 hr following intraperitoneal injection of 10 mg/kg dose; format: functional
Mus musculus [20] = organism: Mus musculus; test: MES test: number of mice treated / total number of mice at 3.0 h; format: functional
Mus musculus [21] = test: Anticonvulsant activity in mice by MES test at 3.0 h following intraperitoneal injection of 30 mg/kg dose; format: functional

Structure (SMILES) | Protected mice (Mus musculus [4]) [%] | Ki (Carbonic anhydrase 4) [nM] | Ki (Carbonic anhydrase 1) [nM] | Ki (Carbonic anhydrase 2) [nM] | also measured
NS(=O)(=O)c1nnc(NC(=O)C23C[C@H]4C[C@@H](C2)C[C@@H](C3)C4)s1 | 96 | 65 | 850 |  | Protected mice (Mus musculus [1]): 25%; Protected mice (Mus musculus [2]): 83%; Protected mice (Mus musculus [3]): 93%
NS(=O)(=O)c1nnc(NS(=O)(=O)Cc2ccccc2)s1 | 38 | 6 | 7 | 5 | Protected mice (Mus musculus [2]): 67%
NS(=O)(=O)c1nnc(NS(=O)(=O)c2ccc(NC(=O)[C@@H]3C4C=CC(C4)C3C(=O)O)cc2)s1 (stereo partly drawn) | 33 | 4 | 5.5 | 1.5 | Protected mice (Mus musculus [2]): 25%
CC(C)(C)OC(=O)Nc1nnc(S(N)(=O)=O)s1 | 60 | 130 | 460 | 9 | Protected mice (Mus musculus [2]): 75%
CC(C)(C)C(=O)Nc1nnc(S(N)(=O)=O)s1 | 100 | 46 | 110 |  | Protected mice (Mus musculus [1]): 44%; Protected mice (Mus musculus [3]): 87%; Protected mice (Mus musculus [5]): 75%
CCCC(CCC)C(=O)OCCOc1ccc2nc(S(N)(=O)=O)sc2c1 |  | 13 | 50 | 7 | 
CCCC(CCC)C(=O)Nc1ccc(S(N)(=O)=O)cc1I |  | 85 | 550 | 43 | 
CCCC(CCC)C(=O)NNc1ccc(S(N)(=O)=O)cc1 |  | 950 | 35600 | 300 | 
CCCC(CCC)C(=O)Nc1c(S(N)(=O)=O)cc(S(N)(=O)=O)c(Cl)c1Cl |  | 155 | 970 | 26 | 
CCCC(CCC)C(=O)Nc1nnc(S(N)(=O)=O)s1 |  | 25 | 50 | 6 | Protected mice (Mus musculus [6]): 93%; No. of mice (Mus musculus [7]): 4; No. of mice (Mus musculus [8]): 5; No. of mice (Mus musculus [9]): 7.5; No. of mice (Mus musculus [10]): 6.5; No. of mice (Mus musculus [11]): 8; Protected mice [12]: 96%; Protected mice [13]: 81%; Protected mice [14]: 100%; Protected mice [15]: 93%; Protected mice [16]: 50%; Protected mice [17]: 63%; Protected mice (Mus musculus [18]): 25%; Protected mice (Mus musculus [5]): 96%; Protected mice (Mus musculus [19]): 100%; No. of mice (Mus musculus [20]): 7
CCCC(CCC)C(=O)Nc1ccc(S(N)(=O)=O)cc1 |  | 630 | 22500 | 240 | 
Cc1ccc(S(=O)(=O)NC(=O)Nc2nnc(S(N)(=O)=O)s2)cc1 | 33 | 12 | 3 | 4 | Protected mice (Mus musculus [2]): 8%
NS(=O)(=O)c1nnc(NC(=O)CCNS(=O)(=O)c2ccc(I)cc2)s1 |  | 120 | 260 | 1.2 | Protected mice (Mus musculus [2]): 33%; Protected mice (Mus musculus [6]): 25%
CCCC(CCC)C(=O)OCCc1ccc(S(N)(=O)=O)cc1 |  | 313 | 1300 | 844 | 
CCCC(CCC)C(=O)Nc1ccc(S(N)(=O)=O)cc1Br |  | 49 | 600 | 36 | 
CCCC(CCC)C(=O)Oc1ccc2nc(S(N)(=O)=O)sc2c1 |  | 15 | 50 | 7 | 

Structure (SMILES) | Protected mice (Mus musculus [4]) [%] | Ki (Carbonic anhydrase 4) [nM] | Ki (Carbonic anhydrase 1) [nM] | Ki (Carbonic anhydrase 2) [nM] | also measured
CCCC(CCC)C(=O)NCCC(=O)Nc1nnc(S(N)(=O)=O)s1 |  | 76 | 360 | 9 | 
CCCC(CCC)C(=O)Nc1ccccc1S(N)(=O)=O |  | 950 | 23000 | 255 | 
CCCC(CCC)C(=O)Nc1ccc(S(N)(=O)=O)cc1Cl |  | 125 | 950 | 50 | 
COc1cc(C(=O)Nc2nnc(S(N)(=O)=O)s2)cc(OC)c1OC | 67 | 51 | 900 | 10 | Protected mice (Mus musculus [5]): 25%
NS(=O)(=O)c1nnc(NC(=O)c2ccccc2)s1 | 25 | 21 | 38 |  | Protected mice (Mus musculus [2]): 83%
CC(=O)/N=c1/sc(S(N)(=O)=O)nn1C [METHAZOLAMIDE] | 100 |  |  |  | Protected mice (Mus musculus [1]): 75%; Protected mice (Mus musculus [2]): 83%; Protected mice (Mus musculus [3]): 88%
CCCC(CCC)C(=O)/N=c1/sc(S(N)(=O)=O)nn1C |  | 42 | 70 | 10 | 
CCCC(CCC)C(=O)Nc1ccc(S(N)(=O)=O)cc1F |  | 110 | 1000 | 45 | 
CCCC(CCC)C(=O)Nc1ccc2nc(S(N)(=O)=O)sc2c1 |  | 16 | 62 | 7 | 
CCCC(CCC)C(=O)OCc1ccc(S(N)(=O)=O)cc1 |  | 333 | 1500 | 115 | 
Cc1ccc(S(=O)(=O)Nc2nnc(S(N)(=O)=O)s2)cc1 | 75 | 3 | 5 | 4 | Protected mice (Mus musculus [1]): 12%; Protected mice (Mus musculus [3]): 62%; Protected mice (Mus musculus [5]): 92%
CCCC(CCC)C(=O)NCc1ccc(S(N)(=O)=O)cc1 |  | 210 | 3700 | 96 | 
CCCC(CCC)C(=O)NCCc1ccc(S(N)(=O)=O)cc1 |  | 200 | 3500 | 84 | 
CC1(C)O[C@@H]2[C@@H](CO[C@@]3(COS(N)(=O)=O)OC(C)(C)O[C@@H]23)O1 [TOPIRAMATE] |  | 54 |  |  | Protected mice (Mus musculus [18]): 62%; Protected mice (Mus musculus [5]): 100%; Protected mice (Mus musculus [19]): 50%; Protected mice (Mus musculus [21]): 83%
CCCC(CCC)C(=O)Nc1cc(Cl)c(S(N)(=O)=O)cc1S(N)(=O)=O |  | 133 | 800 | 70 | 
CCCC(CCC)C(=O)Nc1cccc(S(N)(=O)=O)c1 |  | 740 | 19000 | 221 | 
